Source: patent US20020022718A1, “Genes identified as required for proliferation of E. coli” (priority 1999, published 2002)
Values after ≈ are worked out from the molar mass of the structure shown. Like-named read-outs stand apart in the source and are kept apart here. Bridge positions count the residues as written; N and C are the ends. Square brackets hold non-standard residues; d marks the D form. Peptide text beside a SMILES is read from it. * marks the point of attachment. Ileψ(thiazoline)Cys = CC[C@H](C)[C@H](N)C1=N[C@H](C(=O)*)CS1; dOrn = NCCC[C@@H](N)C(=O)O

B1: EcXA119: antisense clone insert to E. coli b2883 (nucleic acid, listed as Escherichia coli)
antisense: CTCTTTTTCTTCGAGATGGACGCAGTGAGCAAAGACACAGTTTTTACCGGTCAGGCCGTACTGATGGTAAACATCCAGATAACCATCATGGTCAGGATAAAGCGATTTCACCCAGGCAATTTCATCTTTGTTTTCACAGAGATGGGTATGTACCCACGTATCCGGATATTCTTCTTTCAGGCGTTGCGCCATCGCCATCTGTTCAGGAGATGAGGTCGGGGCGAAGCGTGGCGTAATCGCATATAGCAGACGACC
B2: EcXA120: antisense clone insert to E. coli b1509 (nucleic acid, listed as Escherichia coli)
antisense: TCCGCGATCGCGGATAAAAAGGAGGATTTAAATAAGGCGTTGATGCGCCGTTTGAAGTCGGCAATATTAAGCCGCATGCCATCTCGACATGCGGCTTATACGGTTTACCAGCTATATTTCACTCCCAGCATGCCCTGAGTATCGCTATAGCCTTTATCACCTAGTTGCACACCGACATTCCCCCACAGGCTAAGGTTGTTATTTACTTTCGCCTCAACCCCGGTACGTACTTCACCGAGATTACGCGCACCTTCACGGCCTACGGTTTGACCATTCATCTTCACGGCGTAGACTTTGCTATTGTTGATCCAGTTCGCTTCAATGTAAGGCTGGAACTCACGCTGTTTACCATCGTCACGCTGGTGATGGCTGTTCAGGTAGGTTTTCACCCCAAG

How the values were obtained:
[1] = system: Bacterial cells expressing antisense nucleic acid complementary to rplL and rplJ (50S ribosomal subunit proteins); assay: microbe, parasite or virus in culture; format: cell-based, E. coli; conditions: for IC50: Escherichia coli; for Fold Increase in Sensitivity: IC50 −IPTG versus +IPTG (400 μM); for Sensitivity Increased?: significant decrease in IC50 in the presence of inducer IPTG
Experimental: Two-fold dilution series of antibiotics with a known mechanism of action are generated in the culture media selected for further assay development that has been supplemented with the antibiotic used to maintain the construct. A panel of test antibiotics known to act on different pathways is tested side by side with three to four wells being used to evaluate the effect of a test antibiotic on cell growth at each concentration. Equal volumes of test antibiotic and cells are added to the wells of a 384 well microtiter plate and mixed. Cells are prepared as described above using the media selected for assay development supplemented with the antibiotic required to maintain the antisense construct and are diluted 1:100 in identical media immediately prior to addition to the microtiter plate wells. For a control, cells are also added to several wells that contain the solvent used to dissolve the antibiotics but no antibiotic. Cell growth is monitored continuously by incubation at 37° C. in a microtiter plate reader monitoring the OD600 of the wells over an 18-hour period. […] A plot of percent inhibition against log[antibiotic concentration] allows extrapolation of an IC50 value for each antibiotic.
The culture media selected for use in the assay is supplemented with inducer at concentrations shown to inhibit cell growth by 50% and 80% as described above and the antibiotic used to maintain the construct. Two fold dilution series of the panel of test antibiotics used above are generated in each of these media. Several antibiotics are tested side by side with three to four wells being used to evaluate the effects of an antibiotic on cell growth at each concentration, in each media. Equal volumes of test antibiotic and cells are added to the wells of a 384 well microtiter plate and mixed. Cells are prepared as described above using the media selected for use in the assay supplemented with the antibiotic required to maintain the antisense construct. […] Immediately prior to addition to the microtiter plate wells, the cultures are adjusted to an appropriate OD600 (typically 0.002) by dilution into warm (37° C.) sterile media supplemented with identical concentrations of the inducer and antibiotic used to maintain the antisense construct. For a control, cells are also added to several wells that contain solvent used to dissolve test antibiotics but which contain no antibiotic. Cell growth is monitored continuously by incubation at 37° C. in a microtiter plate reader monitoring the OD600 of the wells over an 18-hour period. […] A plot of percent inhibition against log[antibiotic concentration] allows extrapolation of an IC50 value for each antibiotic.
Antibiotics of various chemical classes and modes of action were purchased from Sigma Chemicals (St. Louis, Mo.). Stock solutions were prepared by dissolving each antibiotic in an appropriate aqueous solution based on information provided by the manufacturer. The final working solution of each antibiotic contained no more than 0.2% (w/v) of any organic solvent. To determine their potency against a bacterial strain engineered for expression of an antisense complementary to a proliferation-required gene encoding 50S ribosomal protein, each antibiotic was serially diluted two or three fold in growth medium supplemented with the appropriate antibiotic for maintenance of the anti-sense construct. At least ten dilutions were prepared for each antibiotic. 25 μL aliquots of each dilution were transferred to discrete wells of a 384-well microplate (the assay plate) using a multi-channel pipette. Quadruplicate wells were used for each dilution of an antibiotic under each treatment condition (plus and minus inducer). Each assay plate contained twenty wells for cell growth controls (growth media replacing antibiotic), ten wells for each treatment (plus and minus inducer, in this example IPTG).

Klebsiella pneumoniae = assay: Growth inhibition by induced E. coli antisense RNA in Klebsiella pneumoniae; format: cell-based; parameters: key: +: a positive in Table V below means that at least 10 fold more cells were required to observe a colony on the induced plate than on the non-induced plate; −: If there was no effect of antisense RNA expression in a microorganism, the clone is minus in Table V below; conditions: antisense RNA expression induced with IPTG, serial dilution plating
Experimental: To study the effects of transcriptional induction in liquid medium, growth curves were carried out by back diluting cultures 1:200 into fresh media with or without 1 mM IPTG and measuring the OD450 every 30 minutes (min). To study the effects of transcriptional induction on solid medium, 10^2, 10^3, 10^4, 10^5, 10^6, 10^7 and 10^8 fold dilutions of overnight cultures were prepared. Aliquots of from 0.5 to 3 μl of these dilutions were spotted on selective agar plates with or without 1 mM IPTG. After overnight incubation, the plates were compared to assess the sensitivity of the clones to IPTG.
Molecule No. EcXA190, encoding a portion of the b3052 gene of Escherichia coli, was either transformed directly into Enterobacter cloacae, Salmonella typhimurium and/or Klebsiella pneumoniae or subcloned into an expression vector functional in these species and the subclones transformed into these organisms. Suitable expression vectors are well known in the art. These expression vectors were introduced into Enterobacter cloacae, Salmonella typhimurium and/or Klebsiella pneumoniae cells that were then assayed for growth inhibition according to the method of Example 1. After growth in liquid culture, cells were plated at various serial dilutions and a score determined by calculating the log difference in growth for INDUCED vs. UNINDUCED antisense RNA expression as determined by the maximum 10 fold dilution at which a colony was observed. If there was no effect of antisense RNA expression in one organism, the clone is given a score of zero “0” in that organism. In contrast, a score of “8” means that 10^8 times more cells were required to observe a colony formed on the induced state than in the non-induced state under the conditions used and in that organism.
In addition, the above methods were validated using other antisense nucleic acids which inhibit the growth of E. coli which were identified using methods similar to those described above. Expression vectors which inhibited growth of E. coli upon induction of antisense RNA expression with IPTG were transformed directly into Enterobacter cloacae, Klebsiella pneumonia or Salmonella typhimurium. The transformed cells were then assayed for growth inhibition according to the method of Example 1. After growth in liquid culture, cells were plated at various serial dilutions and a score determined by calculating the log difference in growth for INDUCED vs. UNINDUCED antisense RNA expression as determined by the maximum 10 fold dilution at which a colony was observed. If there was no effect of antisense RNA expression in a microorganism, the clone is minus in Table V below. In contrast, a positive in Table V below means that at least 10 fold more cells were required to observe a colony on the induced plate than on the non-induced plate under the conditions used and in that microorganism.

Molecule | IC50 ([1]; read-out: IC50 (+IPTG)) [µg/mL] | IC50 ([1]; read-out: IC50 (−IPTG)) [µg/mL] | Fold Increase in Sensitivity [1] | Sensitivity Increased? [1] | IC50 (+IPTG) ([1]; antisense to rplL and rplJ induced, 400 μM IPTG) [µg/mL] | IC50 (−IPTG) ([1]; non-induced cells, 0 μM IPTG) [µg/mL] | Sensitivity of K. pneumoniae to antisense nucleic acid (growth inhibition, induced vs. uninduced) (Klebsiella pneumoniae)
CC[C@H](C)[C@H](N)C1=N[C@H](C(=O)N[C@@H](CC(C)C)C(=O)N[C@H](CCC(=O)O)C(=O)N[C@H](C(=O)N[C@H]2CCCCNC(=O)[C@H](CC(N)=O)NC(=O)[C@@H](CC(=O)O)NC(=O)[C@H](Cc3cnc[nH]3)NC(=O)[C@@H](Cc3ccccc3)NC(=O)[C@H]([C@@H](C)CC)NC(=O)[C@@H](CCCN)NC2=O)[C@@H](C)CC)CS1 [Bacitracin] ({Ileψ(thiazoline)Cys}-L[dE]IK[dOrn]I[dF]H[dD]N; lactam 4-C) | 4.68 (≈ 3.29 µM) | 4.08 (≈ 2.87 µM) | 1 | No |  |  | 
CO/N=C(\C(=O)N[C@@H]1C(=O)N2C(C(=O)O)=C(COC(C)=O)CS[C@H]12)c1csc(N)n1 [Cefotaxime] | 0.0242 (≈ 0.053 µM) | 0.0243 (≈ 0.0534 µM) | 1 | No |  |  | 
CO[C@@]1(NC(=O)Cc2cccs2)C(=O)N2C(C(=O)O)=C(COC(N)=O)CS[C@@H]21 [Cefoxitin] | 2.48 (≈ 5.81 µM) | 2.78 (≈ 6.51 µM) | 1 | No |  |  | 
O=C(N[C@H](CO)[C@H](O)c1ccc([N+](=O)[O-])cc1)C(Cl)Cl [Chloramphenicol] | 0.00152 (≈ 0.00469 µM) | 0.465 (≈ 1.44 µM) | 307 | Yes |  |  | 
C[C@H]1c2cccc(O)c2C(=O)C2=C(O)[C@]3(O)C(=O)C(C(N)=O)=C(O)[C@@H](N(C)C)[C@@H]3[C@@H](O)[C@@H]21 [Doxycycline] | 0.0278 (≈ 0.0626 µM) | 0.413 (≈ 0.929 µM) | 15 |  |  |  | 
CC(=O)O[C@H]1C[C@@]2(C)[C@@H](C[C@@H](O)[C@H]3[C@@]4(C)CC[C@@H](O)[C@@H](C)[C@@H]4CC[C@@]32C)/C1=C(\CCC=C(C)C)C(=O)O [Fusidic acid] | 0.641 (≈ 1.24 µM) | 60 (≈ 116 µM) | 94 | Yes |  |  | 
CCC[C@@H]1C[C@@H](C(=O)N[C@@H]([C@H]2O[C@H](SC)[C@H](O)[C@@H](O)[C@H]2O)[C@@H](C)O)N(C)C1 [Lincomycin] | 0.324 (≈ 0.797 µM) | 47.1 (≈ 116 µM) | 145 | Yes |  |  | 
CN(C)c1ccc(O)c2c1C[C@H]1C[C@H]3[C@H](N(C)C)C(O)=C(C(N)=O)C(=O)[C@@]3(O)C(O)=C1C2=O [Minocycline] | 0.0039 (≈ 0.00852 µM) | 0.668 (≈ 1.46 µM) | 172 |  |  |  | 
CC1COc2c(N3CCN(C)CC3)c(F)cc3c(=O)c(C(=O)O)cn1c23 (stereo not drawn) [Ofloxacin] | 0.0459 (≈ 0.127 µM) | 0.0496 (≈ 0.137 µM) | 1 |  |  |  | 
CN[C@@H]1[C@H](O)[C@H](NC)[C@H]2O[C@@]3(O)C(=O)C[C@@H](C)O[C@H]3O[C@@H]2[C@H]1O [Spectinomycin] | < 0.156 | 18.1 (≈ 54.3 µM) |  | Yes |  |  | 
[H]/N=C(/N)N[C@H]1[C@H](O)[C@@H](O)[C@H](O[C@@H]2O[C@@H](C)[C@](O)(C=O)[C@H]2O[C@@H]2O[C@@H](CO)[C@H](O)[C@@H](O)[C@@H]2NC)[C@@H](N/C(N)=N\[H])[C@@H]1O [Streptomycin] | 0.161 (≈ 0.277 µM) | 11.3 (≈ 19.4 µM) | 70 | Yes |  |  | 
CN(C)[C@@H]1C(O)=C(C(N)=O)C(=O)[C@@]2(O)C(O)=C3C(=O)c4c(O)cccc4[C@@](C)(O)[C@H]3C[C@@H]12 [Tetracycline] | 0.00183 (≈ 0.00412 µM) | 0.2 (≈ 0.449 µM) | 109 |  |  |  | 
NC[C@H]1O[C@H](O[C@H]2[C@H](O)[C@@H](O[C@H]3O[C@H](CO)[C@@H](O)[C@H](N)[C@H]3O)[C@H](N)C[C@@H]2N)[C@H](N)C[C@@H]1O [Tobramycin] | 0.0706 (≈ 0.151 µM) | 3.59 (≈ 7.69 µM) | 51 | Yes |  |  | 
CN[C@H](CC(C)C)C(=O)N[C@H]1C(=O)N[C@@H](CC(N)=O)C(=O)N[C@H]2C(=O)N[C@H]3C(=O)N[C@H](C(=O)N[C@H](C(=O)O)c4cc(O)cc(O)c4-c4cc3ccc4O)[C@H](O)c3ccc(c(Cl)c3)Oc3cc2cc(c3O[C@@H]2O[C@H](CO)[C@@H](O)[C@H](O)[C@H]2O[C@H]2C[C@](C)(N)[C@H](O)[C@H](C)O2)Oc2ccc(cc2Cl)[C@H]1O [Vancomycin] | 72.5 (≈ 50.1 µM) | 145 (≈ 100 µM) | 2 | No |  |  | 
Gentamicin |  |  | 141 | Yes | 0.01919 | 2.715 | 
B1 |  |  |  |  |  |  | −
B2 |  |  |  |  |  |  | −
